Measured values: the supplement of paper PMC10883282

Key:
Assay in all cases: relative viability vs DMSO control (72 h) (fraction); higher = more viable cells
VA-ES-BJ = tested on: VA-ES-BJ
Summary of the method: (§1)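 Sarcoma cell lines went into 384-well plates at densities chosen to reach 80–90% confluence. After 24 h, each well received 2.5 µl of serially diluted compound, with source plates running from 10 mM to 0.0002 mM, and the plates were kept 72 h at 37 °C, 5% CO2, alongside 0.1% DMSO vehicle and a 5 µM positive control. Relative viability was derived from ATPLite readings as percent growth and averaged over up to triplicate wells. The data were then rescaled so that 1 stands for full and 0 for none.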

SK-LMS-1 = tested on: SK-LMS-1
Summary of the method: as §1

RD-ES = tested on: RD-ES
Summary of the method: as §1

SW982 = tested on: SW982
Summary of the method: as §1

SW872 = tested on: SW872
Summary of the method: as §1

HT1080 = tested on: HT1080
Summary of the method: as §1

KHOS-NP = tested on: KHOS-NP
Summary of the method: as §1

G401 = tested on: G401
Summary of the method: as §1

A204 = tested on: A204
Summary of the method: as §1

HS729 = tested on: HS729
Summary of the method: as §1

SW684 = tested on: SW684
Summary of the method: as §1

SK-ES-1 = tested on: SK-ES-1
Summary of the method: as §1

CCN(c1cc(-c2ccc(CN3CCOCC3)cc2)cc(C(=O)NCc2c(C)cc(C)[nH]c2=O)c1C)C1CCOCC1 [Tazemetostat]
Conditions | relative viability
A204, 0.00017 µM | 1.04
A204, 0.00051 µM | 1.09
A204, 0.00152 µM | 1.08
A204, 0.00457 µM | 1.07
A204, 0.01372 µM | 1.03
A204, 0.04115 µM | 1.069
A204, 0.1235 µM | 1.08
A204, 0.3704 µM | 1.08
A204, 1.111 µM | 1.08
A204, 3.333 µM | 1.09
A204, 10 µM | 1.05
G401, 0.00017 µM | 1.03
G401, 0.00051 µM | 1.01
G401, 0.00152 µM | 1
G401, 0.00457 µM | 1.049
G401, 0.01372 µM | 1.05
G401, 0.04115 µM | 1.04
G401, 0.1235 µM | 1
G401, 0.3704 µM | 0.999
G401, 1.111 µM | 1.01
G401, 3.333 µM | 1.02
G401, 10 µM | 1.01
HS729, 0.00017 µM | 1.04
HS729, 0.00051 µM | 1.05
HS729, 0.00152 µM | 1.03
HS729, 0.00457 µM | 1.05
HS729, 0.01372 µM | 1.04
HS729, 0.04115 µM | 1.01
HS729, 0.1235 µM | 0.98
HS729, 0.3704 µM | 1
HS729, 1.111 µM | 0.938
HS729, 3.333 µM | 0.932
HS729, 10 µM | 0.892
HT1080, 0.00017 µM | 1.09
HT1080, 0.00051 µM | 1.1
HT1080, 0.00152 µM | 1.08
HT1080, 0.00457 µM | 1.09
HT1080, 0.01372 µM | 1.085
HT1080, 0.04115 µM | 1.07
HT1080, 0.1235 µM | 1.09
HT1080, 0.3704 µM | 1.1
HT1080, 1.111 µM | 1.071
HT1080, 3.333 µM | 1.08
HT1080, 10 µM | 1.01
KHOS-NP, 0.00017 µM | 1.05
KHOS-NP, 0.00051 µM | 1.06
KHOS-NP, 0.00152 µM | 1.06
KHOS-NP, 0.00457 µM | 1.07
KHOS-NP, 0.01372 µM | 1.04
KHOS-NP, 0.04115 µM | 1.04
KHOS-NP, 0.1235 µM | 1.015
KHOS-NP, 0.3704 µM | 0.997
KHOS-NP, 1.111 µM | 0.98
KHOS-NP, 3.333 µM | 0.998
KHOS-NP, 10 µM | 0.934
RD-ES, 0.00017 µM | 0.984
RD-ES, 0.00051 µM | 1
RD-ES, 0.00152 µM | 0.989
RD-ES, 0.00457 µM | 0.965
RD-ES, 0.01372 µM | 0.968
RD-ES, 0.04115 µM | 1.01
RD-ES, 0.1235 µM | 0.975
RD-ES, 0.3704 µM | 0.971
RD-ES, 1.111 µM | 1
RD-ES, 3.333 µM | 0.988
RD-ES, 10 µM | 0.98
SK-ES-1, 0.00017 µM | 1.03
SK-ES-1, 0.00051 µM | 1.01
SK-ES-1, 0.00152 µM | 0.982
SK-ES-1, 0.00457 µM | 0.993
SK-ES-1, 0.01372 µM | 0.972
SK-ES-1, 0.04115 µM | 1.03
SK-ES-1, 0.1235 µM | 1.009
SK-ES-1, 0.3704 µM | 0.998
SK-ES-1, 1.111 µM | 0.991
SK-ES-1, 3.333 µM | 0.961
SK-ES-1, 10 µM | 0.995
SK-LMS-1, 0.00017 µM | 0.996
SK-LMS-1, 0.00051 µM | 1.02
SK-LMS-1, 0.00152 µM | 0.981
SK-LMS-1, 0.00457 µM | 1
SK-LMS-1, 0.01372 µM | 0.997
SK-LMS-1, 0.04115 µM | 1.03
SK-LMS-1, 0.1235 µM | 0.969
SK-LMS-1, 0.3704 µM | 0.9897
SK-LMS-1, 1.111 µM | 0.976
SK-LMS-1, 3.333 µM | 0.969
SK-LMS-1, 10 µM | 0.938
SW684, 0.00017 µM | 1.05
SW684, 0.00051 µM | 1.092
SW684, 0.00152 µM | 1.11
SW684, 0.00457 µM | 1.1
SW684, 0.01372 µM | 1.12
SW684, 0.04115 µM | 1.12
SW684, 0.1235 µM | 1.12
SW684, 0.3704 µM | 1.11
SW684, 1.111 µM | 1.12
SW684, 3.333 µM | 1.14
SW684, 10 µM | 1.1
SW872, 0.00017 µM | 1.04
SW872, 0.00051 µM | 1.07
SW872, 0.00152 µM | 1.07
SW872, 0.00457 µM | 1.072
SW872, 0.01372 µM | 1.066
SW872, 0.04115 µM | 1.08
SW872, 0.1235 µM | 1.05
SW872, 0.3704 µM | 1.06
SW872, 1.111 µM | 1.02
SW872, 3.333 µM | 1.03
SW872, 10 µM | 1.02
SW982, 0.00017 µM | 0.968
SW982, 0.00051 µM | 0.988
SW982, 0.00152 µM | 0.977
SW982, 0.00457 µM | 0.98
SW982, 0.01372 µM | 0.973
SW982, 0.04115 µM | 1.02
SW982, 0.1235 µM | 0.985
SW982, 0.3704 µM | 0.951
SW982, 1.111 µM | 0.958
SW982, 3.333 µM | 0.926
SW982, 10 µM | 0.932
VA-ES-BJ, 0.00017 µM | 1.038
VA-ES-BJ, 0.00051 µM | 1.046
VA-ES-BJ, 0.00152 µM | 1.05
VA-ES-BJ, 0.00457 µM | 1.05
VA-ES-BJ, 0.01372 µM | 1.034
VA-ES-BJ, 0.04115 µM | 1.06
VA-ES-BJ, 0.1235 µM | 1.06
VA-ES-BJ, 0.3704 µM | 1.07
VA-ES-BJ, 1.111 µM | 1.06
VA-ES-BJ, 3.333 µM | 1.08
VA-ES-BJ, 10 µM | 1.07
